Values after ≈ are worked out from the molar mass of the structure shown.
What follows are molecules tested on Mycobacterium tuberculosis (assay: Antimycobacterial activity against Mycobacterium bovis BCG after 6 days by Microdilution Resazurin assay). Conditions: variant bovis BCG, 144 h.
Type: functional
`CC(=O)c1ccc2oc3ccc4c(c3c2c1)CCC(C)(C)O4` was tested, and the MIC95 was over 340 µM.
With `CC1(C)C=Cc2c(ccc3oc4c(Cl)cccc4c23)O1` the MIC95 was over 350 µM.
`CC1(C)C=Cc2c(ccc3oc4cc(Br)ccc4c23)O1` gave an MIC95 of 150 µM (≈ 49.4 µg/mL).
`CC1(C)C=Cc2c(ccc3oc4ccc(Cl)cc4c23)O1` showed an MIC95 of 100 µM (≈ 28.5 µg/mL).
In the case of `CC1(C)C=Cc2c(ccc3oc4cccc(Cl)c4c23)O1`, the MIC95 is reported as over 350 µM.
Molecule `CC1(C)C=Cc2c(ccc3oc4c(O)cccc4c23)O1` has an MIC95 of 94 µM (≈ 25 µg/mL).
With `CC1(C)C=Cc2c(ccc3oc4cc(O)ccc4c23)O1` the MIC95 was 94 µM (≈ 25 µg/mL).
`CC1(C)C=Cc2c(ccc3oc4ccc(O)cc4c23)O1` was tested, and the MIC95 was 79 µM (≈ 21 µg/mL).
Work on `CC1(C)C=Cc2c(ccc3oc4cccc(O)c4c23)O1` yielded an MIC95 of 94 µM (≈ 25 µg/mL).
`CC1(C)CCc2c(ccc3oc4ccc(O)cc4c23)O1` showed an MIC95 of 140 µM (≈ 37.6 µg/mL).
`COc1cccc2c1oc1ccc3c(c12)C=CC(C)(C)O3` showed an MIC95 of 89 µM (≈ 24.9 µg/mL).
For `COc1ccc2c(c1)oc1ccc3c(c12)C=CC(C)(C)O3`, the MIC95 was over 360 µM.
For `COc1ccc2oc3ccc4c(c3c2c1)C=CC(C)(C)O4`, the MIC95 was 89 µM (≈ 24.9 µg/mL).
Work on `COc1cccc2oc3ccc4c(c3c12)C=CC(C)(C)O4` yielded an MIC95 of 89 µM (≈ 24.9 µg/mL).
In the case of `COc1ccc2oc3cc4c(cc3c2c1)OC(C)(C)C=C4`, the MIC95 is reported as 89 µM (≈ 24.9 µg/mL).
Work on `CC1(C)C=Cc2c(ccc3c2oc2ccc4c(c23)C=CC(C)(C)O4)O1` yielded an MIC95 of over 300 µM.
`CC1(C)C=Cc2c(ccc3oc4cc(-c5ccc6c(c5)oc5ccc7c(c56)C=CC(C)(C)O7)ccc4c23)O1` was tested, and the MIC95 was over 200 µM.
In the case of `CC1(C)C=Cc2c(ccc3oc4ccccc4c23)O1`, the MIC95 is reported as 100 µM (≈ 25 µg/mL).
`NNC(=O)c1ccncc1` [ISONIAZID] showed an MIC95 of 4.4 µM (≈ 0.603 µg/mL).

— ChEMBL document CHEMBL1629514, “Synthesis, biological activity, and evaluation of the mode of action of novel antitubercular benzofurobenzopyrans substituted on A ring” (Eur J Med Chem, 2010)
